For orientation: inhibition means the drop in the measured response relative to a control, in per cent.

Inhibition data for 18 compounds are collected here from patent US8680159B2, “Bradykinin 1 receptor modulating compounds” (Gruenenthal GmbH, priority 2010, dated 2014).

In the first assay the target is T1, B1R receptor of the rat (CHO K1 cells stably transfected with the B1R gene of the rat) (Rattus norvegicus, UniProt P97583).
T1 construct: expressed in transfected cells; host or cells: CHO K1 cells (Chinese hamster ovary), stably transfected
T1 sequence (P97583 1-337): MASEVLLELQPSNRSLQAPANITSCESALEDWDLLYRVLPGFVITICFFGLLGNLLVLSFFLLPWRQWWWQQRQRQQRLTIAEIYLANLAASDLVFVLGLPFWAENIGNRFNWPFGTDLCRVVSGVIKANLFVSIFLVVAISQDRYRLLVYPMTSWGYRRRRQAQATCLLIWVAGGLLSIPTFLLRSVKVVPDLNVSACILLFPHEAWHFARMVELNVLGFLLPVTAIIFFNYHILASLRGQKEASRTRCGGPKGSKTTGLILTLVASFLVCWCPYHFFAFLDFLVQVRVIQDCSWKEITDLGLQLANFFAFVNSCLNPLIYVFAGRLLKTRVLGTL
In words: Functional study on the bradykinin receptor 1 (B1R), Ca2+ fluorescence (Fluo-4) FLIPR/Novostar assay, rB1R cells. As to conditions: CHO-K1, 10 μM, library compounds CC_H, read-out: % Inhibition (r-B1R) at 10 μM. The assay is classed as cell-based. On the procedure:
The agonistic or antagonistic action of substances can be quantified on the bradykinin receptor 1 (B1R) of the species human and rat using ectopically expressing cell lines (CHO K1 cells) and with the aid of a Ca^2+-sensitive dye (Fluo-4) using a fluorescent imaging plate reader (FLIPR). The indication in % activation is based on the Ca^2+ signal after addition of Lys-Des-Arg^9-bradykinin (0.5 nM) or Des-Arg^9-bradykinin (100 nM). Antagonists lead to suppression of the Ca^2+ influx after the addition of the agonist. % Inhibition compared with the maximum achievable inhibition is indicated.
The agonistic or antagonistic action of substances can be determined on the bradykinin receptor 1 (B1R) of the species human and rat using the following assay. According to this assay, the increase in intracellular Ca^2+ following administration of a B1R agonist is quantified with the aid of a Ca^2+-sensitive dye (Fluo-4 type, Molecular Probes Europe BV, Leiden, Netherlands) using a Fluorescent Imaging Plate Reader (FLIPR, Molecular Devices, Sunnyvale, USA) and/or using a Novostar (BMG Labtech GmbH, Offenburg, Germany).
Chinese hamster ovary cells (CHO K1 cells) which have been stably transfected with the human B1R gene (hB1R cells) or with the B1R gene of the rat (rB1R cells) are used. For functional studies, the cells are plated out on black 96-well plates having a clear base (BD Biosciences, Heidelberg, Germany or Greiner, Frickenhausen, Germany) in a density of 20,000-35,000 cells/well. The cells are left overnight at 37° C. and with 5% CO2 in culture medium (hB1R cells: Nutrient Mixture Ham's F12, Gibco Invitrogen GmbH, Karlsruhe, Germany or DMEM, Sigma-Aldrich, Taufkirchen, Germany; rB1R cells: D-MEM/F12, Gibco Invitrogen GmbH, Karlsruhe, Germany), with 10 vol. % FBS (fetal bovine serum, Gibco Invitrogen GmbH, Karlsruhe, Germany or PAN Biotech GmbH, Aidenbach, Germany). On the following day, the cells are loaded for 60 minutes at 37° C. with 2.13 μM Fluo-4 (Molecular Probes Europe BV, Leiden, Netherlands) in HBSS buffer (Hank's buffered saline solution, Gibco Invitrogen GmbH, Karlsruhe, Germany) […] (Sigma-Aldrich, Taufkirchen, Germany) and 10 mM HEPES (Sigma-Aldrich, Taufkirchen, Germany). The plates are then washed twice with HBSS buffer, and HBSS buffer additionally containing 0.1% BSA (bovine serum albumin; Sigma-Aldrich, Taufkirchen, Germany), 5.6 mM glucose and 0.05% gelatin (Merck KGaA, Darmstadt, Germany) is added to the plates. After incubation for a further 20 minutes at room temperature, the plates are inserted into the FLIPR or Novostar for Ca^2+ measurement. Alternatively, washing is carried out with buffer A (15 mM HEPES, 80 mM NaCl, 5 mM KCl, 1.2 mM CaCl2, 0.7 mM MgSO4, 2 g/l glucose, 2.5 mM probenecid) followed by loading with buffer A with added 2.5 μM Fluo-4 and 0.025% Pluronic F127 (Sigma-Aldrich, Taufkirchen, Germany). The cells are then washed twice with buffer A and incubated for 30 minutes at room temperature with buffer A additionally containing 0.05% BSA and 0.05% gelatin and are then inserted into the FLIPR or Novostar for Ca^2+ measurement. The Ca^2+-dependent fluorescence is measured before and after the addition of substances (λex=488 nm, λem=540 nm). Quantification is carried out by measuring the highest fluorescence intensity (FC, fluorescence counts) over time.
The FLIPR protocol consists of 2 substance additions, which are pipetted in the FLIPR. In the case of measurements using the Novostar, only the second substance addition is pipetted in the device. Both devices measure the fluorescence intensity over time. Test substances (10 μM) are first pipetted onto the cells and the intracellular Ca^2+ increase is compared with the control (hB1R: Lys-Des-Arg^9-bradykinin>=50 nM; rB1R: Des-Arg^9-bradykinin>=1 μM). This gives the % activation, based on the Ca^2+ signal after addition of Lys-Des-Arg^9-bradykinin (>=50 nM) or Des-Arg^9-bradykinin (>=1 μM). […]
For `CN(C(=O)c1ccc2c(c1)C(NC(=O)c1ccccc1Cl)CC2)C1CCN(c2ccnc(C(C)(C)C)n2)CC1` (stereo not drawn) [CC_H-616, N-[1-(2-tert-Butyl-pyrimidin-4-yl)-piperidin-4-yl]-3-[(2-chloro-benzoyl)amino]-N-methyl-2,3-dihydro-1H-indene-5-carboxylic acid amide], the inhibition at 10 µM came to 101%. Still for that read-out and setting: as for `CN(C(=O)c1ccc2c(c1)C(NC(=O)c1cccnc1C(F)(F)F)CC2)C1CCN(c2ccnc(N3CCCC3)n2)CC1` (stereo not drawn) [CC_H-603, N-[6-[Methyl-[1-(2-pyrrolidin-1-yl-pyrimidin-4-yl)-piperidin-4-yl]-carbamoyl]-2,3-dihydro-1H-inden-1-yl]-2-(trifluoromethyl)-pyridine-3-carboxylic acid amide], the figure is 102%. Same read-out and setting: for `CN(C(=O)c1ccc2c(c1)C(NC(=O)c1cccnc1C(F)(F)F)CC2)C1CCN(c2ccnc(C(C)(C)C)n2)CC1` (stereo not drawn) [CC_H-606, N-[6-[[1-(2-tert-Butyl-pyrimidin-4-yl)-piperidin-4-yl]-methyl-carbamoyl]-2,3-dihydro-1H-inden-1-yl]-2-(trifluoromethyl)-pyridine-3-carboxylic acid amide] the value was 99%.

Still in this assay, the particulars now being: CHO-K1, 10 μM, read-out: % Inhibition (r-B1R) at 10 μM.
Take `CN(C(=O)c1ccc2c(c1)C(NC(=O)c1cccc(C(F)(F)F)c1Cl)CC2)C1CCN(c2ccc3cnccc3c2)CC1` (stereo not drawn) [CC_H-364, 3-[[2-Chloro-3-(trifluoromethyl)-benzoyl]amino]-N-(1-isoquinolin-6-yl-piperidin-4-yl)-N-methyl-2,3-dihydro-1H-indene-5-carboxylic acid amide]: the inhibition at 10 µM was found to be 111%.

For the compound `Cc1cc(N2CCC(N(C)C(=O)c3ccc4c(c3)C(NC(=O)c3cc(Cl)ccc3Cl)CC4)CC2)cc(C)n1` (stereo not drawn) [CC_H-296, 3-[(2,5-Dichloro-benzoyl)amino]-N-[1-(2,6-dimethyl-pyridin-4-yl)-piperidin-4-yl]-N-methyl-2,3-dihydro-1H-indene-5-carboxylic acid amide], the inhibition at 10 µM was 112%. On the same count and under the same terms, as for `CC(C)CC(=O)NC1CCc2ccc(C(=O)N(C)C3CCN(c4ccc5cnccc5c4)CC3)cc21` (stereo not drawn) [CC_H-379, N-(1-Isoquinolin-6-yl-piperidin-4-yl)-N-methyl-3-(3-methyl-butanoylamino)-2,3-dihydro-1H-indene-5-carboxylic acid amide], the figure is 110%.

Consider `CN(C(=O)c1ccc2c(c1)C(NC(=O)C1CC1)CCO2)C1CCN(c2ccncc2)CC1` (stereo not drawn) [CC_H-274, 4-(Cyclopropanecarbonylamino)-N-methyl-N-(1-pyridin-4-yl-piperidin-4-yl)-3,4-dihydro-2H-chromene-6-carboxylic acid amide], for which the inhibition at 10 µM worked out at 91%. Still for that read-out and setting: for `Cc1ccc(F)c(C(=O)N(C)C2CCc3ccc(C(=O)N(C)C4CCN(c5ccncc5)CC4)cc32)c1Cl` (stereo not drawn) [CC_H-209, 3-[(2-Chloro-6-fluoro-3-methyl-benzoyl)-methyl-amino]-N-methyl-N-(1-pyridin-4-yl-piperidin-4-yl)-2,3-dihydro-1H-indene-5-carboxylic acid amide] the value was 112%; for `Cc1cc(N2CCC(N(C)C(=O)c3ccc4c(c3)C(N(C)C(=O)c3cc(F)ccc3Cl)CC4)CC2)cc(C)n1` (stereo not drawn) [CC_H-325, 3-[(2-Chloro-5-fluoro-benzoyl)-methyl-amino]-N-[1-(2,6-dimethyl-pyridin-4-yl)-piperidin-4-yl]-N-methyl-2,3-dihydro-1H-indene-5-carboxylic acid amide], 112%.

For `CN(C(=O)c1ccc2c(c1)C(NC(=O)c1cccc(C(F)(F)F)c1Cl)CC2(C)C)C1CCN(c2ccncc2)CC1` (stereo not drawn) [CC_H-231, 3-[[2-Chloro-3-(trifluoromethyl)-benzoyl]amino]-N,1,1-trimethyl-N-(1-pyridin-4-yl-piperidin-4-yl)-2,3-dihydro-indene-5-carboxylic acid amide], the inhibition at 10 µM came out at 111%. Consider `CN(C(=O)c1ccc2c(c1)C(NC(=O)Nc1cc(C(F)(F)F)ccc1Cl)CCC2)C1CCN(c2ccncc2)CC1` (stereo not drawn) [CC_H-261, 8-[[[2-Chloro-5-(trifluoromethyl)-phenyl]-carbamoyl]amino]-N-methyl-N-(1-pyridin-4-yl-piperidin-4-yl)-5,6,7,8-tetrahydro-naphthalene-2-carboxylic acid amide], for which the inhibition at 10 µM stood at 103%. Same read-out and setting: as for `CN(C(=O)c1ccc2c(c1)C(N(C)C(=O)CC(C)(C)C)CC2)C1CCN(c2ccncc2)CC1` (stereo not drawn) [CC_H-213, 3-(3,3-Dimethyl-butanoyl-methyl-amino)-N-methyl-N-(1-pyridin-4-yl-piperidin-4-yl)-2,3-dihydro-1H-indene-5-carboxylic acid amide], the figure is 110%; as for `COCC(=O)NC1CC(C)(C)c2ccc(C(=O)N(C)C3CCN(c4ccncc4)CC3)cc21` (stereo not drawn) [CC_H-228, 3-[(2-Methoxy-acetyl)amino]-N,1,1-trimethyl-N-(1-pyridin-4-yl-piperidin-4-yl)-2,3-dihydro-indene-5-carboxylic acid amide], 107%; as for `Cc1ccc(F)c(C(=O)NC2CCOc3ccc(C(=O)N(C)C4CCN(c5ccncc5)CC4)cc32)c1Cl` (stereo not drawn) [CC_H-273, 4-[(2-Chloro-6-fluoro-3-methyl-benzoyl)amino]-N-methyl-N-(1-pyridin-4-yl-piperidin-4-yl)-3,4-dihydro-2H-chromene-6-carboxylic acid amide], 112%.

As for `CC(C)CC(=O)NC1CCOc2ccc(C(=O)N(C)C3CCN(c4ccncc4)CC3)cc21` (stereo not drawn) [CC_H-293, N-Methyl-4-(3-methyl-butanoylamino)-N-(1-pyridin-4-yl-piperidin-4-yl)-3,4-dihydro-2H-chromene-6-carboxylic acid amide], the inhibition at 10 µM was 109%. On the same count and under the same terms, for `Cc1cc(N2CCC(N(C)C(=O)c3ccc4c(c3)C(NC(=O)Nc3cccc(Cl)c3)CC4)CC2)cc(C)n1` (stereo not drawn) [CC_H-305, 3-[[(3-Chlorophenyl)-carbamoyl]amino]-N-[1-(2,6-dimethyl-pyridin-4-yl)-piperidin-4-yl]-N-methyl-2,3-dihydro-1H-indene-5-carboxylic acid amide] the value was 109%. On the same count and under the same terms, as for `CN(C(=O)c1ccc2c(c1)C(NC(=O)Nc1c(Cl)cccc1Cl)CC2(C)C)C1CCN(c2ccncc2)CC1` (stereo not drawn) [CC_H-234, 3-[[(2,6-Dichloro-phenyl)-carbamoyl]amino]-N,1,1-trimethyl-N-(1-pyridin-4-yl-piperidin-4-yl)-2,3-dihydro-indene-5-carboxylic acid amide], the figure is 108%. On the same count and under the same terms, for `CC(=O)NC1CCCc2ccc(C(=O)N(C)C3CCN(c4ccncc4)CC3)cc21` (stereo not drawn) [CC_H-253, 8-Acetylamino-N-methyl-N-(1-pyridin-4-yl-piperidin-4-yl)-5,6,7,8-tetrahydro-naphthalene-2-carboxylic acid amide] the value was 110%.
